The values below come from article PMC4422685, “A New APEH Cluster with Antioxidant Functions in the Antarctic Hemoglobinless Icefish Chionodraco hamatus” (PLoS ONE, 2015).

Each structure is given as a SMILES string.

Test [1] deals with T1, APEH-1Dl (Dicentrarchus labrax, UniProt A0A8C4H3D3).
T1 construct: native, purified from red blood cells; 80 kDa monomer, about 300 kDa homotetramer; N-terminus 1AAESQPATEE; deposited cDNA covers only 208 aa of the C-terminal part
Kind of test: exopeptidase (aminopeptidase) assay, pNA release. Type of test: biochemical. The settings on record: 15 °C. An excerpt: exopeptidase (aminopeptidase) assay, pNA release on APEH-1Dl

In test [2] the target is T1, APEH-1Dl. Kind of test: exopeptidase assay, fluorogenic AMC release. The conditions noted are these: 15 °C. Type of test: biochemical. An excerpt: exopeptidase assay, fluorogenic AMC release on APEH-1Dl

T1 sequence (A0A8C4H3D3 entry or part of it): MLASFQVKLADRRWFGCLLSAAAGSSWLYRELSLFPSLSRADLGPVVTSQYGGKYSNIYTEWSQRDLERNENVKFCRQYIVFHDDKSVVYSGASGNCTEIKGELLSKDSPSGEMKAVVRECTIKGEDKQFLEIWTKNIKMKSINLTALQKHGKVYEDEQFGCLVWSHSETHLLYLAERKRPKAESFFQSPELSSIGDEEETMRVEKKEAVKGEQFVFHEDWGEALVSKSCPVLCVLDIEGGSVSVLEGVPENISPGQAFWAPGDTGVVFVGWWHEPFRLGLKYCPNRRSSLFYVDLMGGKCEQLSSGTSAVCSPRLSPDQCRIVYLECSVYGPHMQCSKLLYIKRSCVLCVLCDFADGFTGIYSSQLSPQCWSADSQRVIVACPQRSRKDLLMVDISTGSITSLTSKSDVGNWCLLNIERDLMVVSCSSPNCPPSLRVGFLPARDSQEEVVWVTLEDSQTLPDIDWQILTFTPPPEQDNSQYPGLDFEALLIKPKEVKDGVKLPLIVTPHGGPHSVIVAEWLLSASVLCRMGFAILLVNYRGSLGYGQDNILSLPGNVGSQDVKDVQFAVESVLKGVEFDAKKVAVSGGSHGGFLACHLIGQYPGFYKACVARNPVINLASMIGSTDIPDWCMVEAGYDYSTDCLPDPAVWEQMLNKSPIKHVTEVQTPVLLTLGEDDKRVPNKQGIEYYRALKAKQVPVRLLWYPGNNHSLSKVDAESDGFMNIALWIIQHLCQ

The term Km denotes the substrate concentration at which the rate is half of its maximum. On to `CC(=O)N[C@@H](C)C(=O)Nc1ccc([N+](=O)[O-])cc1` [Ac-Ala-pNA], for which the Michaelis-Menten constant (Km) on APEH-1Dl [1] amounted to 28 µM.
On to `CSCC[C@H](NC(C)=O)C(=O)Nc1ccc2c(C)cc(=O)oc2c1` [Ac-Met-AMC], for which the Km on APEH-1Dl [2] amounted to 52 µM.
